Where a SMILES comes first, the peptide text is derived from it. [ ]: non-standard residue; d: D form. MeBmt = C/C=C/C[C@@H](C)[C@@H](O)[C@H](NC)C(=O)O; NMeY = CN[C@@H](Cc1ccc(O)cc1)C(=O)O; NMeI = CC[C@H](C)[C@H](NC)C(=O)O; NMeT = CN[C@H](C(=O)O)[C@@H](C)O; NMeL = CN[C@@H](CC(C)C)C(=O)O; NMeNle = CCCC[C@H](NC)C(=O)O; Tle = CC(C)(C)[C@H](N)C(=O)O; NMeNva = CCC[C@H](NC)C(=O)O; NMeV = CN[C@H](C(=O)O)C(C)C; NMeA = CN[C@@H](C)C(=O)O; dNMeA = CN[C@H](C)C(=O)O; Abu = CC[C@H](N)C(=O)O; Sar = CNCC(=O)O
Molecular target: T1, Cyclophilin A (Homo sapiens, UniProt P62937)
T1 construct: made in house
Assay: AlphaLISA inhibition of binding of biotinylated Cyclosporin A to FLAG tagged Cyclophilin A
Settings: for % signal: AlphaLISA signal; for % signal / % inhibition of CsA binding to Cyclophilin A: test concentration not given; for IC50: read-out: IC50 value of CsA binding to Cyclophilin A
How it was run: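 Inhibition of biotin-CsA binding to FLAG-tagged Cyclophilin A read by AlphaLISA (ex 680, em 615 nm). Working stocks were 6 nM biotinylated CsA and 25 nM FLAG-CypA; beads and compound were combined first for 30 min, then protein added for 60 min, all at room temperature in the dark, with DMSO and cyclosporin A controls.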

T1 sequence (P62937 whole entry, species assumed): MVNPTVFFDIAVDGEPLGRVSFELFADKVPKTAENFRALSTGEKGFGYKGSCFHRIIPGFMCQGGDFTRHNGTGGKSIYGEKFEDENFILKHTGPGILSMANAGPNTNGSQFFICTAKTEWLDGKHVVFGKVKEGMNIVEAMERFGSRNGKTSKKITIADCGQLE

| SMILES | % signal [%] | IC50 [µM] | % inhibition of CsA binding to Cyclophilin A [%] |
| --- | --- | --- | --- |
| C/C=C/C[C@@H](C)[C@@H](O)[C@H]1C(=O)N[C@@H](CC)C(=O)N(C)CC(=O)N(C)[C@@H](CC(C)C)C(=O)N[C@@H](CC(C)C)C(=O)N(C)[C@@H](CC(C)C)C(=O)N[C@@H](CC(C)C)C(=O)N[C@H](C)C(=O)N(C)[C@@H](CC(C)C)C(=O)N(C)[C@@H](CC(C)C)C(=O)N(C)[C@@H](C(C)C)C(=O)N1C [Compound C62] (cyclo([MeBmt][Abu][Sar][NMeL]L[NMeL]L[dA][NMeL][NMeL][NMeV])) | 27.12 | < 2 | 72.88 |
| C/C=C/C[C@@H](C)[C@@H](O)[C@H]1C(=O)N[C@@H](CC)C(=O)N(C)CC(=O)N(C)[C@@H]([C@@H](C)O)C(=O)N[C@@H](C(C)C)C(=O)N(C)[C@@H](C)C(=O)N[C@@H](C)C(=O)N[C@H](C)C(=O)N(C)[C@@H](CC(C)C)C(=O)N(C)[C@@H](CC(C)C)C(=O)N(C)[C@@H](C(C)C)C(=O)N1C [Compound C7] (cyclo([MeBmt][Abu][Sar][NMeT]V[NMeA]A[dA][NMeL][NMeL][NMeV])) | 2.65 | < 2 | 97.35 |
| C/C=C/C[C@@H](C)[C@@H](O)[C@H]1C(=O)N[C@@H](CC)C(=O)N(C)CC(=O)N(C)[C@@H](CCC)C(=O)N[C@@H](C(C)C)C(=O)N(C)[C@@H](CC(C)C)C(=O)N[C@@H](CC)C(=O)N[C@H](C)C(=O)N(C)[C@@H](CC(C)C)C(=O)N(C)[C@@H](CC(C)C)C(=O)N(C)[C@@H](C(C)C)C(=O)N1C [Compound C102] (cyclo([Abu][Sar][NMeNva]V[NMeL][Abu][dA][NMeL][NMeL][NMeV][MeBmt])) | 0.70 | < 2 |  |
| C/C=C/C[C@@H](C)[C@@H](O)[C@H]1C(=O)N[C@@H](CC)C(=O)N(C)CC(=O)N(C)[C@@H](CC(C)C)C(=O)N[C@@H](C)C(=O)N(C)CC(=O)N[C@@H](C)C(=O)N[C@H](C)C(=O)N(C)[C@@H](CC(C)C)C(=O)N(C)[C@@H](CC(C)C)C(=O)N(C)[C@@H](C(C)C)C(=O)N1C [Compound C22] (cyclo([MeBmt][Abu][Sar][NMeL]A[Sar]A[dA][NMeL][NMeL][NMeV])) | 5.97 | < 2 | 94.03 |
| C/C=C/C[C@@H](C)[C@@H](O)[C@H]1C(=O)N[C@@H](CC)C(=O)N(C)CC(=O)N(C)CC(=O)N[C@@H](C(C)C)C(=O)N(C)[C@@H](CC(C)C)C(=O)N[C@@H](CC)C(=O)N[C@H](C)C(=O)N(C)[C@@H](CC(C)C)C(=O)N(C)[C@@H](CC(C)C)C(=O)N(C)[C@@H](C(C)C)C(=O)N1C [Compound C97] (cyclo([Abu][Sar][Sar]V[NMeL][Abu][dA][NMeL][NMeL][NMeV][MeBmt])) | 6.42 | < 2 | 93.58 |
| C/C=C/C[C@@H](C)[C@@H](O)[C@H]1C(=O)N[C@@H](CC)C(=O)N(C)CC(=O)N(C)[C@@H]([C@@H](C)CC)C(=O)N[C@@H](C(C)(C)C)C(=O)N(C)[C@@H](C)C(=O)N[C@@H](CC(C)C)C(=O)N[C@H](C)C(=O)N(C)[C@@H](CC(C)C)C(=O)N(C)[C@@H](CC(C)C)C(=O)N(C)[C@@H](C(C)C)C(=O)N1C [Compound C69] (cyclo([MeBmt][Abu][Sar][NMeI][Tle][NMeA]L[dA][NMeL][NMeL][NMeV])) | 0.03 | < 2 | 99.97 |
| C/C=C/C[C@@H](C)[C@@H](O)[C@H]1C(=O)N[C@@H](CC)C(=O)N(C)CC(=O)N(C)[C@@H](C(C)C)C(=O)N[C@@H](C(C)C)C(=O)N(C)[C@@H](CC(C)C)C(=O)N[C@@H](CC(C)C)C(=O)N[C@H](C)C(=O)N(C)[C@@H](CC(C)C)C(=O)N(C)[C@@H](CC(C)C)C(=O)N(C)[C@@H](C(C)C)C(=O)N1C [Compound C53] (cyclo([MeBmt][Abu][Sar][NMeV]V[NMeL]L[dA][NMeL][NMeL][NMeV])) | −0.01 | < 2 | 100.01 |
| C/C=C/C[C@@H](C)[C@@H](O)[C@H]1C(=O)N[C@@H](CC)C(=O)N(C)CC(=O)N(C)[C@H](C)C(=O)N[C@@H](C(C)C)C(=O)N(C)[C@@H](C)C(=O)N[C@@H](C)C(=O)N[C@H](C)C(=O)N(C)[C@@H](CC(C)C)C(=O)N(C)[C@@H](CC(C)C)C(=O)N(C)[C@@H](C(C)C)C(=O)N1C [Compound C3] (cyclo([MeBmt][Abu][Sar][dNMeA]V[NMeA]A[dA][NMeL][NMeL][NMeV])) | 13.43 | < 2 | 86.57 |
| C/C=C/C[C@@H](C)[C@@H](O)[C@H]1C(=O)N[C@@H](CC)C(=O)N(C)CC(=O)N(C)[C@@H](Cc2ccc(O)cc2)C(=O)N[C@@H](CC(C)C)C(=O)N(C)[C@@H](CC(C)C)C(=O)N[C@@H](CC(C)C)C(=O)N[C@H](C)C(=O)N(C)[C@@H](CC(C)C)C(=O)N(C)[C@@H](CC(C)C)C(=O)N(C)[C@@H](C(C)C)C(=O)N1C [Compound C64] (cyclo([MeBmt][Abu][Sar][NMeY]L[NMeL]L[dA][NMeL][NMeL][NMeV])) | 28.50 | < 2 | 71.50 |
| C/C=C/C[C@@H](C)[C@@H](O)[C@H]1C(=O)N[C@@H](CC)C(=O)N(C)CC(=O)N(C)[C@@H]([C@@H](C)CC)C(=O)N[C@@H](CC(C)C)C(=O)N(C)[C@@H](CC(C)C)C(=O)N[C@@H](CC(C)C)C(=O)N[C@H](C)C(=O)N(C)[C@@H](CC(C)C)C(=O)N(C)[C@@H](CC(C)C)C(=O)N(C)[C@@H](C(C)C)C(=O)N1C [Compound C57] (cyclo([MeBmt][Abu][Sar][NMeI]L[NMeL]L[dA][NMeL][NMeL][NMeV])) | 0.15 | < 2 | 99.85 |
| C/C=C/C[C@@H](C)[C@@H](O)[C@H]1C(=O)N[C@@H](CC)C(=O)N(C)CC(=O)N(C)[C@@H](CCCC)C(=O)N[C@@H](CC(C)C)C(=O)N(C)[C@@H](CC(C)C)C(=O)N[C@@H](CC(C)C)C(=O)N[C@H](C)C(=O)N(C)[C@@H](CC(C)C)C(=O)N(C)[C@@H](CC(C)C)C(=O)N(C)[C@@H](C(C)C)C(=O)N1C [Compound C68] (cyclo([MeBmt][Abu][Sar][NMeNle]L[NMeL]L[dA][NMeL][NMeL][NMeV])) | 20.46 | < 2 | 79.54 |
| C/C=C/C[C@@H](C)[C@@H](O)[C@H]1C(=O)N[C@@H](CC)C(=O)N(C)CC(=O)N(C)[C@@H](CCC)C(=O)N[C@@H](CC(C)C)C(=O)N(C)[C@@H](CC(C)C)C(=O)N[C@@H](CC(C)C)C(=O)N[C@H](C)C(=O)N(C)[C@@H](CC(C)C)C(=O)N(C)[C@@H](CC(C)C)C(=O)N(C)[C@@H](C(C)C)C(=O)N1C [Compound C66] (cyclo([MeBmt][Abu][Sar][NMeNva]L[NMeL]L[dA][NMeL][NMeL][NMeV])) | 10.95 | < 2 | 89.05 |
| C/C=C/C[C@@H](C)[C@@H](O)[C@H]1C(=O)N[C@@H](CC)C(=O)N(C)CC(=O)N(C)[C@@H](Cc2ccc(O)cc2)C(=O)N[C@@H](C(C)C)C(=O)N(C)CC(=O)N[C@@H](C)C(=O)N[C@H](C)C(=O)N(C)[C@@H](CC(C)C)C(=O)N(C)[C@@H](CC(C)C)C(=O)N(C)[C@@H](C(C)C)C(=O)N1C [Compound C32] (cyclo([MeBmt][Abu][Sar][NMeY]V[Sar]A[dA][NMeL][NMeL][NMeV])) | 0.14 | < 2 | 99.86 |
| C/C=C/C[C@@H](C)[C@@H](O)[C@H]1C(=O)N[C@@H](CC)C(=O)N(C)CC(=O)N(C)[C@@H](C)C(=O)N[C@@H](C(C)(C)C)C(=O)N(C)[C@@H](C)C(=O)N[C@@H](CC(C)C)C(=O)N[C@H](C)C(=O)N(C)[C@@H](CC(C)C)C(=O)N(C)[C@@H](CC(C)C)C(=O)N(C)[C@@H](C(C)C)C(=O)N1C [Compound C70] (cyclo([MeBmt][Abu][Sar][NMeA][Tle][NMeA]L[dA][NMeL][NMeL][NMeV])) | 0.05 | < 2 | 99.95 |
| C/C=C/C[C@@H](C)[C@@H](O)[C@H]1C(=O)N[C@@H](CC)C(=O)N(C)CC(=O)N(C)[C@@H]([C@@H](C)CC)C(=O)N[C@@H](CC(C)C)C(=O)N(C)[C@@H](C)C(=O)N[C@@H](C)C(=O)N[C@H](C)C(=O)N(C)[C@@H](CC(C)C)C(=O)N(C)[C@@H](CC(C)C)C(=O)N(C)[C@@H](C(C)C)C(=O)N1C [Compound C9] (cyclo([MeBmt][Abu][Sar][NMeI]L[NMeA]A[dA][NMeL][NMeL][NMeV])) | 0.11 | < 2 | 99.89 |
| C/C=C/C[C@@H](C)[C@@H](O)[C@H]1C(=O)N[C@@H](CC)C(=O)N(C)CC(=O)N(C)[C@@H](CC(C)C)C(=O)N[C@@H](C(C)C)C(=O)N(C)[C@@H](C)C(=O)N[C@@H](C)C(=O)N[C@H](C)C(=O)N(C)[C@@H](CC(C)C)C(=O)N(C)[C@@H](CC(C)C)C(=O)N(C)[C@@H](C(C)C)C(=O)N1C [Compound C6] | 7.29 | < 2 | 92.71 |

Reference: patent publication US20200199102A1, “COMPOUNDS THAT PARTICIPATE IN COOPERATIVE BINDING AND USES THEREOF” (Revolution Medicines, Inc., priority 2017, published 2020)
